Reference: US20210301038A1, “POLYSIALIC ACID AND DERIVATIVES THEREOF, PHARMACEUTICAL COMPOSITION AND METHOD OF PRODUCING POLYSIALIC ACID” (Medizinische Hochschule Hannover (MHH), priority 2018, published 2021)
Counter-ions that a name gives are not always drawn.

Tests used:
[1] = system: layer II/III - layer V synapses in mPFC slices; experiment: TBS-induced LTP (fEPSP) in sham- and endoNF-treated mPFC slices from C57BL/6 mice; format: cell-based, mouse; settings: endoNF-treated slices; Ro 25-6981 0.3 μM; DP12 1 μg/ml; DP5 1 or 10 μg/ml; sarcosine 0.75 mM; SSR 504734 3 μM
Description: (§1) For endoNF treatment in C57BL/6J mice, slices were first allowed to recover for 20 min at room temperature (22-24° C.) in recording aCSF and were then placed in a 24-well plate to be incubated in 2 ml of aCSF without (sham) or with addition of endoNF (10 μg/ml) at 35° C. for 2 hours. The 24-well plate was installed in a water bath (ED, Julabo, Seelbach, Germany). For field excitatory postsynaptic potential (fEPSP) recordings in knockout and transgenic mice, mPFC slices were incubated in recording aCSF for >2 hours at room temperature before recordings. For patch-clamp recordings in knockout mice, slices were incubated first at 35° C. for 20 min and then at room temperature for >30 min before recordings started. The aCSF was continuously gassed with 95% O2/5% CO2 during all incubation steps and recordings.
(§2) Prefrontal slices (400 μm) were transferred to a submerged-type recording MC membrane chamber (volume 2 ml; Scientific Systems Design Inc., Mississauga, Ontario, Canada) perfused with oxygenated recording ACSF at a flow rate of 4 ml/min and maintained at room temperature (22-25° C.), unless stated otherwise in the “Results”-section given below. Field EPSPs were evoked and recorded using thin-walled glass electrodes (borosilicate glass, wall thickness 0.188, length 100, and outer diameter 1.5 mm, Hilgenberg, Malsfeld, Germany) filled with recording aCSF in 400 μm-thick mPFC slices. In order to stimulate electrically the input fibers of pyramidal cells, the stimulation electrode (0.3-0.5 MΩ) was inserted into layers II/III of the prelimbic cortex. The recording electrode (2-2.5 MΩ) was placed in the vicinity of dendrites and cell bodies of pyramidal neurons in layer V (Huang et al., 2004).
(§3) Before LTP induction, basal synaptic transmission was recorded in each slice and the relationship between stimulus intensity and fEPSP slope was measured. Basal fEPSPs were evoked at 0.05 Hz for at least 10 min. The supramaximal slope was determined by gradually increasing the stimulation intensity until a population spike in the fEPSP became first visible. The stimulation intensity was adjusted to elicit a basal fEPSP with a slope of approximately 50% of the supramaximal value.
(§4) LTP was induced by application of five trains of theta-burst stimulation (TBS) with an inter-theta-train interval of 20 s (Brennaman et al., 2011). Each train consisted of 8 bursts delivered at 5 Hz. Each burst consisted of four pulses delivered at 100 Hz. Duration of pulses was 0.2 ms. For calculation of the LTP level, the mean fEPSP slope was measured between 50-60 min after TBS delivery, and it was then normalized to mean baseline fEPSP slope during 0-10 min before TBS. Stimulus artifacts in representative fEPSP examples in figures were blanked to facilitate the perception of fEPSPs recorded in the mPFC. Recording and analysis of LTP in St8Sia4^−/− mice was performed in a blind manner.
The enzyme endosialidase NF (endoNF) (Stummeyer et al., 2005) and the short form of polysialic acid composed of 10 or twelve sialic acid residues (DP10 and DP12) were purified as described previously (Keys et al., 2014). Sialic acid (N-acetylneuraminic acid, DP1) and the pentamer of sialic acid sodium salt (DP5) were obtained from EY Laboratories (San Mateo, Calif., USA). DMB-labelled DP2 and DP12, and non-labelled avDP10-9OAc were synthesized in the laboratory of Rita Gerardy-Schahn (see sections Synthesis of DMB-DP2 and DMB-DP12 and Synthesis of avDP10-9OAc, respectively). […]

[2] = system: NMDAR-EPSCs (GluN1/GluN2B receptors); experiment: Evoked NMDAR-EPSCs, whole-cell patch-clamp of layer V pyramidal neurons in sham- or endoNF-treated mPFC slices; format: cell-based, mouse; settings: 0.1 μM, in the presence of 5-HT4 antagonist RS 39604 (10 μM)
Description: Each mouse was quickly sacrificed by cervical dislocation. After decapitation, the brain was rapidly removed from the skull and placed in ice-cold artificial cerebrospinal fluid (aCSF) equilibrated with 95% O2/5% CO2, which was composed of the following (in mM): 250 sucrose, 24 NaHCO3, 25 glucose, 2.5 KCl, 1.25 NaH2PO4, 2 CaCl2, and 1.5 MgCl2 (osmolarity 345-350 mOsm/kg, pH 7.4). Using a VT1200S vibratome (Leica, Nussloch, Germany), coronal slices containing the prelimbic and infralimbic cortices (1.9-1.3 mm anterior to bregma) were cut 350 μm or 400 μm thick, for patch clamp and extracellular recordings, respectively, in the same sucrose-containing aCSF. Then, the slices were transferred to a slice holding chamber filled with recording aCSF (osmolarity 300-305 mOsm/kg, pH 7.4) that contained 120 mM NaCl instead of sucrose (Eckhardt et al., 2000) and was continuously gassed with 95% O2/5% CO2.
as §1
For whole-cell patch-clamp recordings, layer V pyramidal neurons were visualized using a SliceScope Pro 6000 equipped with a 40× water-immersion objective and infrared differential interference contrast microscopy (Scientifica, Uckfield, UK). Pyramidal cells were identified by their triangular soma and long apical dendrites, and synaptically evoked excitatory postsynaptic currents (EPSCs) were recorded using patch pipettes (3-5 MQ) fabricated using borosilicate glass capillaries (wall thickness 0.315, length 100, outer diameter 1.5 mm, Hilgenberg) and a DMZ-Zeitz puller (Zeitz Instruments GmbH, Martinsried, Germany). The intracellular pipette solution contained the following (in mM): 140.7 Cs-methane-sulfonate, 5 NaCl, 1 MgCl2, 0.2 EGTA, 10 HEPES, 3 ATP-Mg, 0.3 Na-GTP, and 3.1 QX-314 (osmolarity 295 mOsm/kg, adjusted to pH 7.2 with CsOH). EPSCs were evoked by electrical pulses (0.2 ms) at 0.033 Hz via a glass pipette placed in layer II/III of the mPFC (identically to fEPSPs). Mixed EPSCs showing a fast AMPAR-mediated component and a slow NMDAR-mediated component were recorded at a −60 mV holding potential in whole-cell voltage-clamp mode in normal aCSF. The stimulation intensity was adjusted to evoke mixed EPSCs with amplitudes of approximately 300 pA. The slow NMDAR-mediated component of EPSCs was pharmacologically isolated at −60 mV in modified aCSF containing low Mg^2+ (0.1 mM) and high Ca^2+ (3.2 mM, for adjustment of divalent cation concentrations), the selective antagonist of α-amino-3-hydroxy-5-methyl-4-isoxazolepropionic acid (AMPA)/kainate receptors NBQX (10 μM), and the selective antagonist of γ-aminobutyric acid (GABA)B receptors CGP-55845 (2 μM) (Chen et al., 2003). The washout of Mg^2+ required at least 25 min. Recordings at a holding potential near the resting membrane potential allowed us to obtain stable NMDAR-EPSC recordings from pyramidal cells lasting for 1-1.5 hours. Series resistance (Rs, range 10-25 MΩ) was compensated (20-30%) and monitored continuously. Neurons in which Rs changed by more than 20% throughout the experiment were not included in the analysis. In voltage-clamp mode, membrane potential was not corrected for liquid junction potential. […]

[3] = system: C57BL/6J mice with intra-mPFC endoNF injection; experiment: Novel object recognition test before and after intra-mPFC endoNF injection; format: in vivo, mouse
Description: Guide cannulas were fabricated using stainless steel tubing with outer/inner diameter Ø 0.711/0.483 mm (Science Products, Germany). Dummy cannulas were made from entomological pins, size 2, Ø 0.41 mm (FST, Germany). Chronic implantation of cannulas into the mPFC in mice was performed as described previously for intrahippocampal injections (Kochlamazashvili et al., 2012; Senkov et al., 2015; Senkov et al., 2006).
Acute injection of endoNF in vivo was done under a short isoflurane anesthesia. For intra-mPFC injection, we used a digitally controlled infusion system (UltraMicroPump, UMP3, and Micro4 Controller, WPI, USA) fed with a 10 μl-Hamilton syringe and NanoFil 135 μm (35 GA) beveled needle. The thin (135 μm) part of the needle went into the mouse brain during injection, whereas its thick part (430 μm) fit perfectly in the guide cannula (inside 483 μm). Injections were performed as follows: 1) a mouse was anesthetized with 1-3% isoflurane as during implantation; 2) it was put into the stereotaxic frame; 3) the dummy cannula was gently removed from the left guide cannula; 4) a NanoFil injecting needle was carefully placed inside of the guide cannula and advanced further down until reaching the marker (made with a permanent pen at the needle shank (430 μm) to visualize the point when the needle should reach the surface of the brain coming out of the guide cannula (equal to the length of guide cannula); 5) once the marker was reached, a slow (10 μm increment) step dial was used to deepen the needle into the brain; 6) endoNF (2 μg/μl) or vehicle was injected with the following settings: 250 nl per site as deep as 1.5 and 2.25 mm from the brain surface (total injection volume per hemisphere 500 nl, injection rate of 3 nl/s); 7) after injection was complete (˜5 min), the needle was left in the injection site for another 5 min and then gently removed; 8) the dummy cannula was then put back to its place; 9) the same procedure was performed for the right hemisphere. The whole injection process took approximately 20-25 min under isoflurane anesthesia, and the mice recovered rather quickly, starting to move in approximately 2-3 min after being returned to their home cages. Complete recovery of a mouse after such short anesthesia usually occurs within 3-5 min. After injection, mice were returned to their animal facility. Behavior experiments started on the day after injection at approximately the same time, so that we could perform cognitive tests 24 hours after injection.
A white open field arena (50×50×30 cm) was used in the novel object recognition task. All behavior was video recorded and analyzed automatically by software (ANY-maze, version 4.99, Stoelting Co., Wood Dale, Ill.). […]

[4] = system: mPFC slices from St8sia4−/− mice; experiment: TBS-induced LTP in mPFC slices from ST8SIA4-deficient mice and wild-type littermates; format: cell-based, mouse; settings: Ro 25-6981 0.3 μM, DP12 1 μg/ml, sarcosine 0.75 mM
Description: as §1, §2, §3, §4

Structure (SMILES)	LTP level 50-60 min after TBS [1]	inhibition of NMDAR-EPSC amplitude ([2]; endoNF-treated slices) [%]	inhibition of NMDAR-EPSC amplitude ([2]; sham-treated slices) [%]	novel object recognition after intra-mPFC endoNF injection ([3]; 30 min before encoding, sarcosine 600 mg/kg i.p. (d2), DP12 (d5) and DP1 (d6) 1 mg/kg intranasally)	novel object recognition before endoNF injection ([3]; d-1, 600 mg/kg i.p. 30 min before the encoding phase)	LTP magnitude ([4]; St8sia4+/+ mice)	LTP level 50-60 min after TBS ([4]; St8sia4−/− mice)
O=C(N[C@@H](c1ccccc1)[C@@H]1CCCCN1)c1cccc(C(F)(F)F)c1Cl [SSR 504734, 2-chloro-N—[(S)-phenyl[(2S)-piperidin-2-yl]methyl]-3-trifluoromethyl benzamide]	rescued LTP						
[H]/N=C(/NCCCCC)N/N=C/c1c[nH]c2ccc(OC)cc12 [tegaserod, tegaserod maleate]		~30	~50				
CNCC(=O)O [sarcosine, N-methylglycine]	fully restored to sham levels			fully alleviated	normal object recognition	no effect	full restoration of LTP levels
